Source: PMC11784183, “Identification of an antibiotic from an HTS targeting EF-Tu:tRNA interaction: a prospective topical treatment for MRSA skin infections” (Applied and Environmental Microbiology, 2024)

System: S. aureus USA300 subcutaneous infection
Test: Mouse skin infection model, topical ointment
Format: in vivo, mice
Conditions: topical ointment daily

C/C(=C\C(=O)OCCCCCCCCC(=O)O)C[C@@H]1OC[C@H](C[C@@H]2O[C@H]2[C@@H](C)[C@H](C)O)[C@@H](O)[C@H]1O [mupirocin, reference compound]
dermonecrosis as a result of S. aureus infection (area over time) (5 days, vs untreated control (ointment without drug)): not having a significant effect on dermonecrosis | bacterial burden in punch biopsies (day 5, vs untreated control): significantly reduced the bacterial burden
